Results as given in the supplement of paper PMC7840683.
± gives the standard deviation of the averaged measurements.

Test system: HepaRG
Test: LDH release cytotoxicity, % of total lysis control; higher = more cytotoxic
Settings: 48 h
In short: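 Single-lot HepaRG cells on collagen I-coated 96-well plates were exposed for 48 h in duplicate, in serum-free induction medium with 0.5% DMSO, to eight-point half-log series (test chemicals top 100 µM). Total lysis wells received 0.1% Triton X, and LDH leakage into 50 µL spent medium was read as resorufin fluorescence (CytoTox-ONE, Tecan Safire). Percent cytotoxicity was normalized to on-plate vehicle and total lysis controls and averaged over the duplicates.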

CSc1nnc(C(C)(C)C)c(=O)n1N [Metribuzin]
Settings	LDH release cytotoxicity [%]
0.03162 µM	-0.754 ± 0.83
0.1 µM	0.58 ± 1
0.3162278 µM	-0.959 ± 0.2
1 µM	-1.09 ± 0.56
3.16228 µM	-1.24 ± 0.2
10 µM	-0.985 ± 0.14
31.6228 µM	-0.751 ± 0.37
100 µM	0.317 ± 0.26

COP(=S)(OC)Oc1ccc(SC)c(C)c1 [Fenthion]
Settings	LDH release cytotoxicity [%]
0.03162 µM	-0.428 ± 0.68
0.1 µM	-0.733 ± 0.38
0.3162278 µM	-0.879 ± 0.25
1 µM	-0.217 ± 1
3.16228 µM	-0.561 ± 0.56
10 µM	0.173 ± 0.094
31.6228 µM	0.52 ± 0.028
100 µM	2.37 ± 0.83

C=CN1CCCC1=O [N-Vinyl-2-pyrrolidone]
Settings	LDH release cytotoxicity [%]
0.01581 µM	-1.31 ± 0.34
0.05 µM	-2.25 ± 0.44
0.1581139 µM	-2.68 ± 0.3
0.5 µM	-2.71 ± 0.27
1.5811388 µM	-2.96 ± 0.54
5 µM	-2.54 ± 0.67
15.8114 µM	-1.96 ± 0.93
50 µM	-0.521 ± 0.9

CCCC(=O)O [Butanoic acid]
Settings	LDH release cytotoxicity [%]
0.03162 µM	0.168 ± 0.2
0.1 µM	-0.77 ± 0.36
0.3162278 µM	-0.76 ± 0.38
1 µM	-1.47 ± 0.67
3.16228 µM	-0.676 ± 0.53
10 µM	-0.93 ± 0.85
31.6228 µM	-0.26 ± 0.0066
100 µM	-0.235 ± 0.085

CS(=O)(=O)c1cc(C(F)(F)F)ccc1C(=O)c1cnoc1C1CC1 [Isoxaflutole]
Settings	LDH release cytotoxicity [%]
0.03162 µM	-0.368 ± 0.91
0.1 µM	-1.2 ± 0.74
0.3162278 µM	-2.1 ± 0.12
1 µM	-1.58 ± 1.2
3.16228 µM	-0.928 ± 1.1
10 µM	-0.455 ± 0.32
31.6228 µM	-0.687 ± 0.2
100 µM	0.934 ± 0.86

CNC(=O)ON=CC(C)(C)SC [Aldicarb]
Settings	LDH release cytotoxicity [%]
0.03162 µM	-1.61 ± 1.2
0.1 µM	-1.37 ± 0.9
0.3162278 µM	-2.06 ± 0.65
1 µM	-1.68 ± 0.72
3.16228 µM	-1.686 ± 0.0048
10 µM	-0.703 ± 0.55
31.6228 µM	-1.04 ± 1
100 µM	-0.341 ± 0.039

CCCCCCCCO [1-Octanol]
Settings	LDH release cytotoxicity [%]
0.03162 µM	-0.769 ± 1
0.1 µM	-1.52 ± 0.36
0.3162278 µM	-0.614 ± 0.069
1 µM	-1.76 ± 0.5
3.16228 µM	-2.15 ± 1.1
10 µM	-1.49 ± 0.68
31.6228 µM	1.06 ± 0.25
100 µM	2.86 ± 2.5

CC1OC=CC(=O)C1=O (centres undefined) [Maltol]
Settings	LDH release cytotoxicity [%]
0.032888 µM	-1.82 ± 0.089
0.104 µM	-1.46 ± 1.1
0.328877 µM	-2.18 ± 0.095
1.04 µM	-3.62 ± 0.59
3.28877 µM	-2.64 ± 0.45
10.4 µM	-1.92 ± 0.23
32.8877 µM	-1.627 ± 0.0032
104 µM	0.353 ± 0.45

COC1C(OC(=O)NC(=O)CCl)CCC2(CO2)C1C1(C)OC1CC=C(C)C (centres undefined) [o-(Chloroacetylcarbamoyl)fumagillol]
Settings	LDH release cytotoxicity [%]
0.01012 µM	-1.03 ± 1.5
0.032 µM	-2.16 ± 1.1
0.101193 µM	-2.32 ± 0.23
0.32 µM	-2.5 ± 0.28
1.01193 µM	-1.78 ± 0.47
3.2 µM	-1.64 ± 0.6
10.1193 µM	-0.944 ± 0.11
32 µM	0.233 ± 0.59

CC(C)CCO [Isopentyl alcohol]
Settings	LDH release cytotoxicity [%]
0.0317809 µM	-1.55 ± 0.48
0.1005 µM	-1.43 ± 0.1
0.317809 µM	-2.18 ± 0.83
1.005 µM	-2.36 ± 0.33
3.17809 µM	-1.495 ± 0.0016
10.05 µM	-1.51 ± 0.068
31.7809 µM	-1.18 ± 0.042
100.5 µM	-0.0999 ± 0.2

CNCc1ccc(NC(=O)c2c[nH]c3c2C(=O)CCC3)cc1
Settings	LDH release cytotoxicity [%]
0.03162 µM	-1.87 ± 1.2
0.1 µM	-0.925 ± 0.22
0.3162278 µM	-1.24 ± 0.49
1 µM	-1.23 ± 0.55
3.16228 µM	-1.06 ± 0.37
10 µM	-0.719 ± 0.61
31.6228 µM	-0.723 ± 0.24
100 µM	-1.06 ± 0.15

CC(C)C(C(=O)OC(C#N)c1cccc(Oc2ccccc2)c1)c1ccc(Cl)cc1 (centres undefined) [Esfenvalerate]
Settings	LDH release cytotoxicity [%]
0.03162 µM	-0.0612 ± 0.44
0.1 µM	-1.61 ± 0.76
0.3162278 µM	-0.46 ± 0.66
1 µM	-0.419 ± 0.79
3.16228 µM	-1.05 ± 0.74
10 µM	0.166 ± 0.61
31.6228 µM	-0.322 ± 0.82
100 µM	-0.488 ± 0.23

NC(=O)N(O)C1COc2cc(OCc3ccccc3)ccc21 (centres undefined)
Settings	LDH release cytotoxicity [%]
0.02846 µM	-1.76 ± 0.2
0.09 µM	-2.99 ± 1.7
0.284605 µM	-1.03 ± 1.1
0.9 µM	-2.27 ± 0.15
2.84605 µM	-0.514 ± 0.72
9 µM	0.238 ± 0.36
28.4605 µM	3.46 ± 0.72
90 µM	22.46 ± 0.1

CC1=C(C(=O)Nc2ccccc2)SCCO1 [Carboxin]
Settings	LDH release cytotoxicity [%]
0.03162 µM	-0.0118 ± 0.68
0.1 µM	-0.836 ± 2.2
0.3162278 µM	-1.79 ± 0.24
1 µM	-0.232 ± 1.3
3.16228 µM	-1.1 ± 0.12
10 µM	-0.0461 ± 0.17
31.6228 µM	3.07 ± 1.5
100 µM	8.14 ± 2.8

O=c1c(-c2ccc(O)cc2)coc2cc(O)ccc12 [7,4'-Dihydroxyisoflavone]
Settings	LDH release cytotoxicity [%]
0.03162 µM	-1.77 ± 0.55
0.1 µM	-1.95 ± 0.049
0.3162278 µM	-1.45 ± 0.29
1 µM	-2.21 ± 0.22
3.16228 µM	-1.87 ± 0.47
10 µM	-0.343 ± 0.097
31.6228 µM	-0.854 ± 0.4
100 µM	0.307 ± 0.89

CN1C(=O)N(c2ccccc2Br)Cc2cnc(Nc3ccc4c(c3)OCC(CO)O4)nc21 (centres undefined)
Settings	LDH release cytotoxicity [%]
0.03162 µM	0.454 ± 1.5
0.1 µM	-0.735 ± 1
0.3162278 µM	-1.07 ± 0.81
1 µM	-1.37 ± 0.18
3.16228 µM	-0.0336 ± 0.15
10 µM	0.443 ± 0.9
31.6228 µM	8.29 ± 1.1
100 µM	63.4 ± 0.97

CN(C)c1ccc(Cc2ccc(N(C)C)cc2)cc1 [4,4'-Methylenebis(N,N-dimethylaniline)]
Settings	LDH release cytotoxicity [%]
0.03162 µM	-0.47 ± 1.9
0.1 µM	-1.28 ± 0.91
0.3162278 µM	-1.73 ± 1
1 µM	-1.6 ± 0.25
3.16228 µM	-1.29 ± 0.56
10 µM	-1.04 ± 0.28
31.6228 µM	-0.536 ± 0.19
100 µM	0.0839 ± 0.57

COc1ccc(-n2nc(C(F)F)cc2-c2ccc(S(C)=O)cc2)cc1 (centres undefined) [Difpas-pyrazole]
Settings	LDH release cytotoxicity [%]
0.03162 µM	-0.159 ± 0.56
0.1 µM	-0.696 ± 1.1
0.3162278 µM	-0.216 ± 0.65
1 µM	-0.962 ± 0.34
3.16228 µM	0.006 ± 0.28
10 µM	0.216 ± 0.15
31.6228 µM	0.847 ± 0.57
100 µM	78.66 ± 0.17
